In patent US6846827B1, “Pyrimidine derivatives” (AstraZeneca AB, priority 1999, dated 2005):
pIC50: −log10 of the molar value.

Assays:
[1] = biological target: T1, p38α (Homo sapiens, UniProt Q16539); test: In vitro enzyme assay, p38α; type: biochemical; conditions: read-out: IC50 against p38α
T1 construct: c-myc (N); 6His (N); made in house; host or cells: E. coli (PET vectors)
Protocol: The ability of compounds of the invention to inhibit the enzyme p38 kinase was assessed. Activity of test compounds against each of the p38α and p38β isoforms of the enzyme was determined. […]
Test compounds were solubilised in DMSO and 10 μl of a 1:10 diluted sample in ‘Kinase Buffer’ was added to a well in a Microtiter plate. […] The precipitated protein was phosphorylated by p38 kinase and test compounds were assessed for their ability to inhibit this phosphorylation. The plates were filtered using a Canberra Packard Unifilter and washed with 2% TCA, dried overnight and counted on a Top Count scintillation counter.
Test compounds were tested initially at a single dose and active compounds were retested to allow IC50 values to be determined.

[2] = system: TNFα production in human whole blood; test: Human Whole Blood test: inhibition of LPS-stimulated TNFα production; type: cell-based
Protocol: The ability of the compounds of this invention to inhibit TNFα production was also assessed in a human whole blood assay. Human whole blood secretes TNFα when stimulated with LPS. This property of blood forms the basis of an assay which is used as a secondary test for compounds which profile as active in the PBMC test.
Heparinised (10 units/ml) human blood was obtained from volunteers. 160 μl whole blood were added to 96 well round-bottom plates (Corning 25850). Compounds were solubilised and serially diluted in RPMI 1640 medium (Gibco) supplemented with 50 units/ml penicillin, 50 μg/ml streptomycin and 2 mM glutamine, as detailed above. 20 μl of each test concentration was added to appropriate wells (triplicate cultures). 20 μl of RPMI 1640 medium supplemented with antibiotics and glutamine was added to control wells. Plates were incubated for 30 minutes at 37° C. (humidified incubator), prior to addition of 20 μl LPS (final concentration 10 μg/ml). RPMI 1640 medium was added to control wells. Six “LPS alone” and four “medium alone” controls were included on each plate. A known TNFα synthesis/secretion inhibitor was included in each test. Plates were incubated for 6 hours at 37° C. (humidified incubator). […] TNFα levels were measured by ELISA (see WO92/10190 and Current Protocols in Molecular Biology, vol 2 by Frederick M. Ausbel et al., John Wiley and Sons Inc.). […]

T1 sequence (Q16539 whole entry): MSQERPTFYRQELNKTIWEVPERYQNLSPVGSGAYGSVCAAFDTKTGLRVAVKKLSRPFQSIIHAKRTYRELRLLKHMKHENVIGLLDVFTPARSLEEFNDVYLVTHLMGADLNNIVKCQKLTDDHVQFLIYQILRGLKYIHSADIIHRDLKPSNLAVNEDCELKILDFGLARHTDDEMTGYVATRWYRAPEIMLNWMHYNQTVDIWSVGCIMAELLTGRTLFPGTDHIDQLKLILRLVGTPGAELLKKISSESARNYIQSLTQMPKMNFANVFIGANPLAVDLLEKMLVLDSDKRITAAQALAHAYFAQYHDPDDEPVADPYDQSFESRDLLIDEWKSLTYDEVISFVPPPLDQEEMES

- pIC50 [1]: ~7.52
- pIC50 [2]: ~4.80
Compound: Cc1ccc(NC(=O)c2cc(F)cc(N3CCOCC3)c2)cc1Nc1cc(C(N)=O)nc(Cl)n1 [6-Carbamoyl-2-chloro-4-[5-(3-fluoro-5-morpholinobenzamido)-2-methylanilino]-pyrimidine]
